Test results published in US8476280B2, “Compositions and methods for combating lower urinary tract dysfunctions with delta opioid receptor agonists” (Versi Group, LLC, priority 2002, dated 2013).

How the values were obtained:
[1] = test system: healthy conscious rats; experiment: Cystometric parameters in healthy conscious rats; format: in vivo, rat; details: for inhibition of bladder contractions (micturition pressure): intravenous administration, recorded 90 minutes after injection; for frequency of bladder contractions / pressure of bladder contractions: oral administration via stomach cannula, recorded 120 minutes after administration
Experimental: Male rats weighing 200 to 250 grams were used. The rats were housed with free access to food and maintained on forced 12 hours alternating light-dark cycle at 22-24° C. for at least one week, except during performance of the experiment.
The rats were anesthetized with pentobarbital, 65 mg/kg i.p. and placed in a supine position. An approximately 10 mm long midline incision was made in the shaved and cleaned abdominal wall. The urinary bladder was freed from adhering tissues, emptied and then cannulated, via an incision at the dome with a polyethylene cannula (PE50), which was permanently sutured in place. The cannula was exteriorized through a subcutaneous tunnel in the retroscapular area, where it was connected with a plastic adapter to avoid the risk of removal by the rats. For intravenous (i.v.) injection of test compounds, a polyethylene tubing (PE50) was inserted into the jugular vein and exteriorized in the retroscapular area. Since cystometrographic parameters have been reported to be influenced by the time elapsed after catheter implantation, the rats were treated with 1 mg/kg Penicilline G, intramuscularly, to prevent infection and allowed to rest 3 days after implantation and before testing commenced.
For oral administration of test compounds, a polyethylene tube (PE50) was inserted into the stomach and was permanently sutured in place. The cannula was exteriorized through a subcutaneous tunnel in the retroscapular area, where it was connected with a plastic adapter to avoid the risk of removal by the rats.
On the day of the experiments, the rats were placed in Bollman's cages, the free tip of the bladder catheter was connected through a T-shaped tube to a pressure transducer (Grass PT300 or Gould P23) to record bladder pressure and to a peristaltic pump for continuous infusion, at a constant rate of […] of saline solution into the urinary bladder. The intraluminal pressure signal during infusion was continuously recorded. Two urodynamic parameters were evaluated: micturition pressure and interval between micturition that equates to volume capacity before detrusor contraction occurs (decrease in frequency of contractions). Micturition pressure is defined as the maximal intravesical pressure induced by the contraction of detrusor during micturition. Data was calculated as the mean of testing results for several animals at each dosage. The drug effects were expressed as a percent relative to activity of the control data, which was set at 100%.
Infusion was commenced with saline solution to determine activity in rats without test compounds to be used as the control baseline. Saline solution infusion was interrupted and the test compounds were administered. At time points 90 minutes after intravenous administration and 120 minutes after oral drug administration, cystometrograms were recorded in each animal and the mean values of the recorded cystometrographic parameters were calculated.

[2] = test system: rats experiencing partial urethral restriction; experiment: Cystometric parameters in rats experiencing partial urethral restriction; format: in vivo, rat; details: oral administration of 10 mg/kg
Excerpt: Male rats weighing 200 to 250 grams were used. The method to produce bladder outlet obstructions thereby producing partial urethral restriction is essentially that reported by Malmgren et al, J. Urol. 137:1291-1294, the disclosure of which is hereby incorporated herein by reference. Following anesthetic induction, the ventral abdominal wall and perineum were shaved and cleaned with betadine. A lower midline abdominal incision was made, and the bladder and proximal urethra were identified. A plastic rod with a ˜1 mm outer diameter was placed parallel to the urethra, and a silk ligature was tied around the urethra and the plastic rod. […]
On the day of testing, the bladder catheter was connected through a T-shaped tube to a pressure transducer (Grass PT300 or Gould P23) to record bladder pressure isovolumetrically and to a peristaltic pump for continuous infusion, at a constant rate of 0.1 ml/min, of saline solution into the urinary bladder. The pressure signal during infusion was continuously recorded.
Two urodynamic parameters were evaluated in the test rats: micturition pressure and interval between voiding that equates to volume capacity before detrusor contraction occurs (decrease in frequency of contractions). Changes in bladder activity were recorded and expressed as pressure or volume over time.

SMILES	inhibition of bladder contractions (micturition pressure) [1]	frequency of bladder contractions [1]	pressure of bladder contractions [1]	frequency and intensity of pressure contractions ([2]; three test rats)	volume capacity (bladder capacity before voiding) ([2]; trace 1d)
CCN(CC)C(=O)c1ccc(C(c2ccccc2)N2C[C@@H](C)N(Cc3cccc(F)c3)C[C@@H]2C)cc1 (stereo partly drawn) [Compound 1, 4-((alpha-S)-alpha-((2S,5R)-2,5-Dimethyl-4-(3-fluorobenzyl)-1-piperazinyl)benzyl)-N,N-diethylbenzamide]	effected an inhibition of bladder contractions	a decrease in the frequency of bladder contractions	a decrease in the pressure of these contractions	marked improvement in both frequency and intensity of pressure contractions (reduced)	volume capacity increased
CCN(CC)C(=O)c1ccc(C(c2ccccc2)N2C[C@@H](C)N(Cc3ccc(F)cc3)C[C@@H]2C)cc1 (stereo partly drawn) [Compound 2, 4-((alpha-S)-alpha-((2S,5R)-2,5-Dimethyl-4-(4-fluorobenzyl)-1-piperazinyl)benzyl)-N,N-diethylbenzamide]	effected an inhibition of bladder contractions				
C=CCN1C[C@H](C)N(C(c2ccc(C(=O)N(CC)CC)cc2)c2cccc(OCC(=O)O)c2)C[C@H]1C (stereo partly drawn) [Compound 3, 3-((alpha-R)-alpha-((2S,5R)-4-allyl-2,5-dimethyl-1-piperazinyl)-4-(diethylaminocarbonyl)benzyl)phenoxyacetic acid]	effected an inhibition of bladder contractions				
C=CCN1C[C@H](C)N(C(c2ccccc2)c2cccc(C(=O)N(C)c3cccc(F)c3)c2)C[C@H]1C (stereo partly drawn) [Compound 4, 3-((alpha-S)-alpha-((2S,5R)-4-Allyl-2,5-dimethyl-1-piperazinyl)benzyl)-N-(3-fluorophenyl)-N-methylbenzamide]	effected an inhibition of bladder contractions				
Cc1ccccc1[C@H](c1cccc(O)c1)N1C[C@@H](C)NC[C@@H]1C [Compound 10, 3-((S)-((2S,5R)-2,5-Dimethyl-1-piperazinyl)(2-methylphenyl)methyl)phenol]	effected an inhibition of bladder contractions				
C[C@@H]1CN(Cc2ccc(C(=O)O)cc2)[C@@H](C)CN1[C@H](c1ccc(S(=O)(=O)N(C)C)cc1)c1cccc(O)c1 [Compound 11, 4-{4-[(R)-(4-dimethylsulfamoyl-phenyl)-(3-hydroxyphenyl)methyl]-(2S,5R)-dimethylpiperazin-1-ylmethyl}benzoic acid]		a decrease in the frequency of bladder contractions	a decrease in the pressure of these contractions		
